Source: patent publication US10471046B2, “Method for treating, preventing, or reducing the risk of skin infection” (Melinta Subsidiary Corp., priority 2014, dated 2019)
≈ marks a conversion by molar mass, not a printed value.

Each compound was assayed on S. aureus (assay: Minimum inhibitory concentrations (MICs) for S. aureus of exemplary compounds (Table 2)). Details: Staphylococcus aureus, minimum inhibitory concentrations for S. aureus; read-out: MICs.
Format: cell-based
Description: Exemplary compounds in accordance with the invention are listed in Table 2 with their minimum inhibitory concentrations (MICs) (μg/mL) for S. aureus:
Furthermore, the antibiotic compounds can be assayed for anti-proliferative or anti-infective properties on a cellular level. For example, where the target organism is a microorganism, the activity of compounds of interest can be assayed by growing the microorganisms of interest in media either containing or lacking the compound. Growth inhibition can be indicative that the molecule could be acting as a protein synthesis inhibitor. […] For this purpose, a panel of bacterial strains can be assembled to include a variety of target pathogenic species, some containing resistance mechanisms that have been characterized. Use of such a panel of organisms permits the determination of structure-activity relationships not only in regards to potency and spectrum, but also with a view to obviating resistance mechanisms. The assays can be performed in microtiter trays according to conventional methodologies as published by The National Committee for Clinical Laboratory Standards (NCCLS) guidelines (NCCLS. M7-A5-Methods for Dilution Antimicrobial Susceptibility Tests for Bacteria That Grow Aerobically; Approved Standard-Fifth Edition. NCCLS Document M100-S12/M7 (ISBN 1-56238-394-9)).
In the case of `CC(=O)NC[C@H]1CN(c2ccc(-c3ccc(CNC(=O)C4CNC4)cc3)c(F)c2)C(=O)O1` [Compound 4291, Azetidine-3-carboxylic acid {4′-[5-(S)-(acetylamino-methyl)-2-oxo-oxazolidin-3-yl]-2′-fluoro-biphenyl-4-ylmethyl}-amide], the MIC is reported as 8 µg/mL (≈ 18.2 µM).
`CC(=O)NC[C@H]1CN(c2ccc(-c3ccc(Cn4nnc(N)n4)cc3)c(F)c2)C(=O)O1` [Compound 1024, N-{3-[4′-(5-Amino-tetrazol-2-ylmethyl)-2-fluoro-biphenyl-4-yl]-2-oxo-oxazolidin-5-(S)-ylmethyl}-acetamide] showed an MIC of 0.25 µg/mL (≈ 0.588 µM).
Work on `CC(=O)NC[C@H]1CN(c2ccc(-c3ccc(NC(=O)Nc4ccncc4)cc3)c(F)c2)C(=O)O1` [Compound 6006, N-{3-[2-Fluoro-4′-(3-pyridin-4-yl-ureido)-biphenyl-4-yl]-2-oxo-oxazolidin-5-(S)-ylmethyl}-acetamide] yielded an MIC of 128 µg/mL (≈ 276 µM).
For `CC(=O)NC[C@H]1CN(c2ccc(-c3ccc(CN(C)Cc4cnn[nH]4)cc3)c(F)c2)C(=O)O1` [Compound 4276, N-[3-(2-Fluoro-4′-{[methyl-(3H-[1,2,3]triazol-4-ylmethyl)-amino]-methyl}-biphenyl-4-yl)-2-oxo-oxazolidin-5-(S)-ylmethyl]-acetamide], the MIC was 0.25 µg/mL (≈ 0.552 µM).
For `CNCc1cn(Cc2ccc(-c3ccc(N4C[C@H](CNC(C)=O)OC4=O)cc3F)cc2)nn1` [Compound 1012, N-{3-[2-Fluoro-4′-(4-methylaminomethyl-[1,2,3]triazol-1-ylmethyl)-biphenyl-4-yl]-2-oxo-oxazolidin-5-(S)-ylmethyl}-acetamide], the MIC was 2 µg/mL (≈ 4.42 µM).
In the case of `CC(=O)NC[C@H]1CN(c2ccc(-c3ccc(CN4CC(CF)OC4=O)cc3)c(F)c2)C(=O)O1` (mixture of isomers) [Compound 1095, N-{3-[2-Fluoro-4′-(5-fluoromethyl-2-oxo-oxazolidin-3-(R/S)ylmethyl)-biphenyl-4-yl]-2-oxo-oxazolidin-5-(S)-ylmethyl}-acetamide], the MIC is reported as 0.5 µg/mL (≈ 1.09 µM).
Compound `CC(=O)NC[C@H]1CN(c2ccc(-c3ccc(CNC(=O)c4ccnc5ccccc45)cc3)c(F)c2)C(=O)O1` [Compound 4008, Quinoline-4-carboxylic acid {4′-[5-(S)-(acetylamino-methyl)-2-oxo-oxazolidin-3-yl]-2′-fluoro-biphenyl-4-ylmethyl}-amide] has an MIC of 1 µg/mL (≈ 1.95 µM).
Compound `CC(=O)NC[C@H]1CN(c2ccc(-c3ccc(CNCc4sccc4C)cc3)c(F)c2)C(=O)O1` [Compound 4099, N-[3-(2-Fluoro-4′-{[(3-methyl-thiophen-2-ylmethyl)-amino]-methyl}-biphenyl-4-yl)-2-oxo-oxazolidin-5-(S)-ylmethyl]-acetamide] has an MIC of 4 µg/mL (≈ 8.55 µM).
In the case of `CC(=O)NC[C@H]1CN(c2ccc(-c3ccc(CNCc4ccncc4)nc3)c(F)c2)C(=O)O1` [Compound 4073, N-{3-[3-Fluoro-4-(6-{[(pyridin-4-ylmethyl)-amino]-methyl}-pyridin-3-yl)-phenyl]-2-oxo-oxazolidin-5-(S)-ylmethyl}-acetamide], the MIC is reported as 2 µg/mL (≈ 4.45 µM).
`CC(=O)NC[C@H]1CN(c2ccc(-c3ccc(CNCc4nc(C)no4)cc3)c(F)c2)C(=O)O1` [Compound 4140, N-[3-(2-Fluoro-4′-{[(3-methyl-[1,2,4]oxadiazol-5-ylmethyl)-amino]-methyl}-biphenyl-4-yl)-2-oxo-oxazolidin-5-(S)-ylmethyl]-acetamide] gave an MIC of 2 µg/mL (≈ 4.41 µM).
`CC(=O)NC[C@H]1CN(c2ccc(-c3ccc(CNC(C)c4cnn[nH]4)cc3)c(F)c2)C(=O)O1` (mixture of isomers) [Compound 4278, N-[3-(2-Fluoro-4′-{[1-(R/S)-(3H-[1,2,3]triazol-4-yl)-ethylamino]-methyl}-biphenyl-4-yl)-2-oxo-oxazolidin-5-(S)-ylmethyl]-acetamide] was tested, and the MIC was 2 µg/mL.
Work on `CC(=O)NC[C@H]1CN(c2ccc(-c3ccc(CNCCCc4cn(Cc5ccccc5)nn4)cc3)c(F)c2)C(=O)O1` [Compound 4256, N-[3-(4′-{[3-(1-Benzyl-1H-[1,2,3]triazol-4-yl)-propylamino]-methyl}-2-fluoro-biphenyl-4-yl)-2-oxo-oxazolidin-5-(S)-ylmethyl]-acetamide] yielded an MIC of 4 µg/mL (≈ 7.19 µM).
`CC(=O)NC[C@H]1CN(c2ccc(-c3ccc(CNCc4nc5ccccc5[nH]4)cc3)c(F)c2)C(=O)O1` [Compound 4092, N-[3-(4′-{[(1H-Benzoimidazol-2-ylmethyl)-amino]-methyl}-2-fluoro-biphenyl-4-yl)-2-oxo-oxazolidin-5-(S)-ylmethyl]-acetamide] was tested, and the MIC was 4 µg/mL (≈ 8.2 µM).
Work on `CC(=O)NC[C@H]1CN(c2ccc(-c3ccc(CNCc4csc(-c5cccs5)n4)cc3)c(F)c2)C(=O)O1` [Compound 4113, N-[3-(2-Fluoro-4′-{[(2-thiophen-2-yl-thiazol-4-ylmethyl)-amino]-methyl}-biphenyl-4-yl)-2-oxo-oxazolidin-5-(S)-ylmethyl]-acetamide] yielded an MIC of 0.25 µg/mL (≈ 0.466 µM).
For `CC(=O)NC[C@H]1CN(c2ccc(-c3ccc(CNCc4cccn4S(=O)(=O)c4ccccc4)cc3)c(F)c2)C(=O)O1` [Compound 4100, N-[3-(4′-{[(1-Benzenesulfonyl-1H-pyrrol-2-ylmethyl)-amino]-methyl}-2-fluoro-biphenyl-4-yl)-2-oxo-oxazolidin-5-(S)-ylmethyl]-acetamide], the MIC was 4 µg/mL (≈ 6.94 µM).
With `CC(=O)NC[C@H]1CN(c2ccc(-c3ccc(COCc4cc[n+]([O-])cc4)cc3)c(F)c2)C(=O)O1` [Compound 4198, N-{3-[2-Fluoro-4′-(1-oxy-pyridin-4-ylmethoxymethyl)-biphenyl-4-yl]-2-oxo-oxazolidin-5-(S)-ylmethyl}-acetamide] the MIC was 2 µg/mL (≈ 4.3 µM).
`CC(=O)NC[C@H]1CN(c2ccc(-c3ccc(C(=O)NCc4ccccn4)nc3)c(F)c2)C(=O)O1` [Compound 4187, 5-{4-[5-(S)-(Acetylamino-methyl)-2-oxo-oxazolidin-3-yl]-2-fluoro-phenyl}-pyridine-2-carboxylic acid (pyridin-2-ylmethyl)-amide] gave an MIC of 1 µg/mL (≈ 2.16 µM).
`CO/N=C(\CNCc1cocn1)c1ccc(-c2ccc(N3C[C@H](CNC(C)=O)OC3=O)cc2F)cc1` [Compound 4255, N-[3-(2-Fluoro-4′-{1-methoxyimino-2-[(oxazol-4-ylmethyl)-amino]-ethyl}-biphenyl-4-yl)-2-oxo-oxazolidin-5-(S)-ylmethyl]-acetamide] gave an MIC of 2 µg/mL (≈ 4.04 µM).
Compound `CC(=O)NC[C@H]1CN(c2ccc(-c3ccc(CN(C)Cc4cccnc4)cc3)c(F)c2)C(=O)O1` [Compound 4047, N-(3-{2-Fluoro-4′-[(methyl-pyridin-3-ylmethyl-amino)-methyl]-biphenyl-4-yl}-2-oxo-oxazolidin-5-(S)-ylmethyl)-acetamide] has an MIC of 2 µg/mL (≈ 4.32 µM).
Work on `CC(=O)NC[C@H]1CN(c2ccc(-c3ccc(CNCc4ccc(-c5cccc(S(N)(=O)=O)c5)o4)cc3)c(F)c2)C(=O)O1` [Compound 4158, N-{3-[2-Fluoro-4′-({[5-(3-sulfamoyl-phenyl)-furan-2-ylmethyl]-amino}-methyl)-biphenyl-4-yl]-2-oxo-oxazolidin-5-(S)-ylmethyl}-acetamide] yielded an MIC of 2 µg/mL (≈ 3.37 µM).
In the case of `CC(=O)NC[C@H]1CN(c2ccc(-c3ccc(CNCCc4ccccn4)cc3)c(F)c2)C(=O)O1` [Compound 4087, N-(3-{2-Fluoro-4′-[(2-pyridin-2-yl-ethylamino)-methyl]-biphenyl-4-yl}-2-oxo-oxazolidin-5-(S)-ylmethyl)-acetamide], the MIC is reported as 4 µg/mL (≈ 8.65 µM).
Work on `CC(=O)NC[C@H]1CN(c2ccc(-c3ccc(CNCCCn4ccnn4)cc3)c(F)c2)C(=O)O1` [Compound 4264, N-(3-{2-Fluoro-4′-[(3-[1,2,3]triazol-1-yl-propylamino)-methyl]-biphenyl-4-yl}-2-oxo-oxazolidin-5-(S)-ylmethyl)-acetamide] yielded an MIC of 4 µg/mL (≈ 8.57 µM).
Work on `CC(=O)NC[C@H]1CN(c2ccc(-c3ccc(CN4CC[S+]([O-])CC4)cc3)c(F)c2)C(=O)O1` [Compound 1065, N-{3-[2-Fluoro-4′-(1-oxo-1 lambda*4*-thiomorpholin-4-ylmethyl)-biphenyl-4-yl]-2-oxo-oxazolidin-5-(S)-ylmethyl}-acetamide] yielded an MIC of 2 µg/mL (≈ 4.35 µM).
In the case of `CC(=O)NC[C@H]1CN(c2ccc(-c3ccc(C(=O)NCCc4scnc4C)cc3)c(F)c2)C(=O)O1` [Compound 4112, 4′-[5-(S)-(Acetylamino-methyl)-2-oxo-oxazolidin-3-yl]-2′-fluoro-biphenyl-4-carboxylic acid [2-(4-methyl-thiazol-5-yl)-ethyl]-amide], the MIC is reported as 0.25 µg/mL (≈ 0.503 µM).
For `CC(=O)NC[C@H]1CN(c2ccc(-c3ccc(CNCc4c[nH]c5ccccc45)cc3)c(F)c2)C(=O)O1` [Compound 4083, N-[3-(2-Fluoro-4′-{[(1H-indol-3-ylmethyl)-amino]-methyl}-biphenyl-4-yl)-2-oxo-oxazolidin-5-(S)-ylmethyl]-acetamide], the MIC was 2 µg/mL (≈ 4.11 µM).
Work on `CC(=O)NC[C@H]1CN(c2ccc(-c3ccc(CNCc4ccc(-c5ccccn5)s4)cc3)c(F)c2)C(=O)O1` [Compound 4119, N-[3-(2-Fluoro-4′-{[(5-pyridin-2-yl-thiophen-2-ylmethyl)-amino]-methyl}-biphenyl-4-yl)-2-oxo-oxazolidin-5-(S)-ylmethyl]-acetamide] yielded an MIC of 1 µg/mL (≈ 1.88 µM).
`CC(=O)NC[C@H]1CN(c2ccc(-c3ccc(C[S+]([O-])c4ccccn4)cc3)c(F)c2)C(=O)O1` (stereo partly drawn) [Compound 2023, N-{3-[2-Fluoro-4′-(pyridine-2-sulfinylmethyl)-biphenyl-4-yl]-2-oxo-oxazolidin-5-(S)-ylmethyl}-acetamide] gave an MIC of 1 µg/mL (≈ 2.14 µM).
With `CC(=O)NC[C@H]1CC(c2ccc(-c3ccc(CNCc4ccncc4)cc3)nc2)=NO1` [Compound 4133, N-{3-[6-(4-{[(Pyridin-4-ylmethyl)-amino]-methyl}-phenyl)-pyridin-3-yl]-4,5-dihydro-isoxazol-5-(R)-ylmethyl}-acetamide] the MIC was 128 µg/mL (≈ 308 µM).
